Data reported in patent publication US20250134146A1, “FLAVANONE COMPOUNDS AND THEIR USE AS FLAVOR MODIFIERS” (Firmenich Incorporated, priority 2022, published 2025).

Tests used:
Human Panelists [1] = assay: sensory evaluation of sweetness of 6% sucrose solution containing Compound at its Threshold Concentration, relative to pure sucrose solutions; type: in vivo; details: 6% sucrose solution plus Compound at its Threshold Concentration, compared with pure sucrose solutions
From the text: (§1) Test samples containing selected experimental compounds were sensory evaluated for sweetness intensity relative to 1.5% sucrose solution by a trained sensory panel of at least 8 panelists. The highest concentration of a Compound which panelists determined to be less sweet than 1.5% sucrose solution was set as its Threshold Concentration (TC). Next, panelists evaluated the sweetness of 6% sucrose solution containing each Compound at its Threshold Concentration (TC), relative to pure sucrose solutions at varying concentrations. Table 5 summarizes the sensory evaluation data for compounds 101,102, 105, 107 and 122-125, 127, 128.

Human Panelists [2] = assay: sensory evaluation of sweetness intensity relative to 1.5% sucrose solution (Threshold Concentration); type: in vivo; details: highest concentration judged less sweet than 1.5% sucrose solution, trained sensory panel of at least 8 panelists
From the text: as §1

T1R sweet taste receptor = target: T1, T1R sweet taste receptor (Homo sapiens, UniProt Q7RTX0+Q8TE23); assay: in vitro cell-based assay, cells overexpressing the T1R sweet taste receptor; sweet dose-response curves; details: cells that overexpress the T1R sweet taste receptor; calculated from sweet dose-response curves
T1 construct: expressed in transfected cells
T1 sequence (Q8TE23 20-839): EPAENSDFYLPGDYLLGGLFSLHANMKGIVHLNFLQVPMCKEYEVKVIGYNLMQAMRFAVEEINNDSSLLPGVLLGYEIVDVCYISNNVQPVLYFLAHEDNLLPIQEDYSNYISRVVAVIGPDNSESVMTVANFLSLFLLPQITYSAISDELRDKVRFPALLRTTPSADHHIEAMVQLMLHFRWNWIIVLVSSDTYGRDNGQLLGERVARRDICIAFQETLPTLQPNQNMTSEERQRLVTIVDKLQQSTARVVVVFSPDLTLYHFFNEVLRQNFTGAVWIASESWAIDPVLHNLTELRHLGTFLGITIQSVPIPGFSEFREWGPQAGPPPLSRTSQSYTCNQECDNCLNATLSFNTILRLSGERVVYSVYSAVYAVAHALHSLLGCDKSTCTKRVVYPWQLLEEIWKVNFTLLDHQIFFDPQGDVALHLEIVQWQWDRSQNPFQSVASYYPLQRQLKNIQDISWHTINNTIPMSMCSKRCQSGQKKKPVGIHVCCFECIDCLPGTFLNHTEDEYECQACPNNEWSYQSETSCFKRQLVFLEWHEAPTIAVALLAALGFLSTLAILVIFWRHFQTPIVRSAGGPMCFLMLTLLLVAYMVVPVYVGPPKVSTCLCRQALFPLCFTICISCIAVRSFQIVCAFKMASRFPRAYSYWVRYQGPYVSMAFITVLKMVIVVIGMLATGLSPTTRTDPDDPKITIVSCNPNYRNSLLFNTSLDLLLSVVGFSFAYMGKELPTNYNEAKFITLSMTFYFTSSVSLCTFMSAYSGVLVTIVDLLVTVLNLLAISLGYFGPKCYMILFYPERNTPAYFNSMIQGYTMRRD
T1 sequence (Q7RTX0 21-852): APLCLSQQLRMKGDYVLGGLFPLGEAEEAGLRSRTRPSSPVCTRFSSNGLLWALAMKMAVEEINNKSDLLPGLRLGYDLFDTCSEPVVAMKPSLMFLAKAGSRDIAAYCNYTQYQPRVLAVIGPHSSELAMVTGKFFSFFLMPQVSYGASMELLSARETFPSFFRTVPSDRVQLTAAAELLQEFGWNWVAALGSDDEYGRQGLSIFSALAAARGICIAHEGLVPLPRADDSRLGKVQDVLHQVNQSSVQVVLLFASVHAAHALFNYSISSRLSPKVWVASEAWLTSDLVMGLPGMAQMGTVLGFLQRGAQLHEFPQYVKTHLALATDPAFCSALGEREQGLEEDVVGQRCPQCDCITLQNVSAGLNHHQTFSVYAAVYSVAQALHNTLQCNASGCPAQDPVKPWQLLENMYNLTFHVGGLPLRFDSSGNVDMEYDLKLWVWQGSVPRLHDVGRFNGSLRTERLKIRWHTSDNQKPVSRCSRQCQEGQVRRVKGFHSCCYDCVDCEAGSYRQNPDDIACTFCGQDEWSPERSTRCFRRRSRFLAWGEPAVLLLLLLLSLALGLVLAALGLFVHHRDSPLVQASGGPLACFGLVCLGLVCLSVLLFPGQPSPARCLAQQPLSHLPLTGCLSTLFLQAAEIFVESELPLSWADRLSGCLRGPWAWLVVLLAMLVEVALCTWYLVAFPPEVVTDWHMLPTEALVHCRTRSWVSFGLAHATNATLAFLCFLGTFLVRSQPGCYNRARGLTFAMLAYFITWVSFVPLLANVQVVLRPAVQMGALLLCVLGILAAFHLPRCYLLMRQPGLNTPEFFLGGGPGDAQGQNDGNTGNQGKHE
Description: Each of Compounds 101-107, 113, and 117-129 was either synthesized or separated from the corresponding synthetic racemate. Thereafter, the compounds were tested in an in vitro cell-based assay having cells that overexpress the T1R sweet taste receptor. The sweet dose-response curves were recorded and the EC50 was calculated. Table 4 sets forth the calculated EC50 values for the compounds tested.

| EC50 (T1R sweet taste receptor) [µM] | Structure (SMILES) | Sucrose concentration of equal sweetness to (6% sucrose + Compound at its TC) (Human Panelists [1]) | Threshold Concentration (TC) - less sweet than 1.5% sucrose (Human Panelists [2]) [ppm] | Threshold Concentration (TC) - less sweet than 1.5% sucrose (Human Panelists [2]; value in brackets) [µM] |
| --- | --- | --- | --- | --- |
|  | CO[C@@H]1C(=O)c2c(O)cc(O)cc2O[C@H]1c1ccc(O)cc1 (racemic) [Compound 101, (trans)-5,7-dihydroxy-2-(4-hydroxyphenyl)-3-methoxychroman-4-one] | ≥7.5% | 11 | 36 |
| 1 | COc1ccc([C@@H]2Oc3cc(O)cc(O)c3C(=O)[C@H]2OC)cc1O (racemic) [Compound 102, (trans)-5,7-dihydroxy-2-(3-hydroxy-4-methoxyphenyl)-3-methoxychroman-4-one] | ≥7.5% | 4 | 12 |
| 0.1 | COc1ccc([C@@H]2Oc3cccc(O)c3C(=O)[C@H]2OC)cc1O (racemic) [Compound 105, (trans)-5-hydroxy-2-(3-hydroxy-4-methoxyphenyl)-3-methoxychroman-4-one] | ≥7.5% | 1.5 | 4.8 |
| 7 | COc1ccc([C@@H]2Oc3cc(O)ccc3C(=O)[C@H]2OC)cc1O (racemic) [Compound 107, (trans)-7-hydroxy-2-(3-hydroxy-4-methoxyphenyl)-3-methoxychroman-4-one] | ≥7.5% | 11 | 35 |
| 92 | CO[C@@H]1C(=O)c2ccc(O)cc2O[C@H]1c1ccc(O)cc1 (relative stereo) [Compound 106, (trans)-7-hydroxy-2-(4-hydroxyphenyl)-3-methoxychroman-4-one] |  |  |  |
| 25 | COc1cc(O)c2c(c1)O[C@@H](c1ccc(OC)c(O)c1)[C@H](OC)C2=O (relative stereo) [Compound 113, (trans)-5-hydroxy-2-(3-hydroxy-4-methoxyphenyl)-3,7-dimethoxychroman-4-one] |  |  |  |
| 1 | CCO[C@@H]1C(=O)c2c(O)cc(O)cc2O[C@H]1c1ccc(OC)c(O)c1 (relative stereo) [Compound 117, (trans)-5,7-dihydroxy-2-(3-hydroxy-4-methoxyphenyl)-3-ethoxychroman-4-one] |  |  |  |
| 30 | CCO[C@@H]1C(=O)c2c(O)cc(O)cc2O[C@H]1c1ccc(O)cc1 (relative stereo) [Compound 118, (trans)-5,7-dihydroxy-2-(4-hydroxyphenyl)-3-ethoxychroman-4-one] |  |  |  |
| 0.4 | CCO[C@@H]1C(=O)c2c(O)cccc2O[C@H]1c1ccc(OC)c(O)c1 (relative stereo) [Compound 119, (trans)-5-hydroxy-2-(3-hydroxy-4-methoxyphenyl)-3-ethoxychroman-4-one] |  |  |  |
| 180 | CO[C@@H]1C(=O)c2c(O)cc(O)cc2O[C@H]1c1cc(O)c(O)c(O)c1 (relative stereo) [Compound 121, (trans)-2-(3,4,5-trihydroxyphenyl)-5,7-dihydroxy-3-methoxychroman-4-one] |  |  |  |
| > 100 | CO[C@@H]1C(=O)c2c(O)cc(O)cc2O[C@H]1c1ccc(O)cc1 (relative stereo) [Compound 125, (−)-(trans)-5,7-dihydroxy-2-(4-hydroxyphenyl)-3-methoxychroman-4-one] |  |  |  |
| 1 | COc1ccc([C@@H]2Oc3cccc(O)c3C(=O)[C@H]2OC)cc1O (relative stereo) [Compound 127, (−)-(trans)-5-hydroxy-2-(3-hydroxy-4-methoxyphenyl)-3-methoxychroman-4-one] |  |  |  |
| > 200 | COc1ccc([C@@H]2Oc3cc(O)ccc3C(=O)[C@H]2OC)cc1O (relative stereo) [Compound 129, (−)-(trans)-7-hydroxy-2-(3-hydroxy-4-methoxyphenyl)-3-methoxychroman-4-one] |  |  |  |
| 0.7 | COc1ccc([C@H]2Oc3cc(O)cc(O)c3C(=O)[C@@H]2OC)cc1O (single isomer, unassigned) [Compound 122, (+)-(trans)-5,7-dihydroxy-2-(3-hydroxy-4-methoxyphenyl)-3-methoxychroman-4-one] | ≥8.0%, | 2.5 | 7.5 |
| 10 | CO[C@H]1C(=O)c2c(O)cc(O)cc2O[C@@H]1c1ccc(O)cc1 (stereo in doubt) [Compound 124, (+)-(trans)-5,7-dihydroxy-2-(4-hydroxyphenyl)-3-methoxychroman-4-one] | ≥8.0% | 5 | 16 |
| 0.03 | COc1ccc([C@H]2Oc3cccc(O)c3C(=O)[C@@H]2OC)cc1O (stereo in doubt) [Compound 126, (+)-(trans)-5-hydroxy-2-(3-hydroxy-4-methoxyphenyl)-3-methoxychroman-4-one] |  |  |  |
| 9 | COc1ccc([C@H]2Oc3cc(O)ccc3C(=O)[C@@H]2OC)cc1O (stereo in doubt) [Compound 128, (+)-(trans)-7-hydroxy-2-(3-hydroxy-4-methoxyphenyl)-3-methoxychroman-4-one] | ≥8.0% | 5 | 16 |
| 4 | COC1C(=O)c2c(O)cccc2OC1c1ccc(O)cc1 (stereo not drawn) [Compound 104, (trans)-5-hydroxy-2-(4-hydroxyphenyl)-3-methoxychroman-4-one] |  |  |  |
| 8 | CCOC1C(=O)c2ccc(O)cc2OC1c1ccc(OC)c(O)c1 (stereo not drawn) [Compound 120, (tans)-7-hydroxy-2-(3-hydroxy-4-methoxyphenyl)-3-ethoxychroman-4-one] |  |  |  |
